Assay results from patent US6849757B2, “Antiangiogenic drug to treat cancer, arthritis and retinopathy” (Abbott Laboratories, priority 1998, dated 2005).

System: Human Microvascular Endothelial Cells (HMVEC)
Assay: Endothelial cell migration assay (modified Boyden chamber, bFGF-stimulated)
Assay type: cell-based
Details: HMVEC migration toward bFGF, 4 hours at 37° C., percent inhibition of migration compared to a positive control; for inhibition at 0.2 µM: Homo sapiens, 200 nM test compound
Experimental: Endothelial Cell Migration Assay
The endothelial cell migration assay was performed essentially as described by Polverini, P. J. et al., Methods Enzymol, 198: 440-450 (1991). Briefly, Human Microvascular Endothelial Cells (HMVEC) were starved overnight in DMEM containing 0.1% bovine serum albumin (BSA). Cells were then harvested with trypsin and resuspended in DMEM with 0.1% BSA at a concentration of 1.5×10^6 cells/mL. Cells were added to the bottom of a 48-well modified Boyden chamber (Nucleopore Corporation, Cabin John, Md.). The chamber was assembled and inverted, and cells were allowed to attach for 2 hours at 37° C. to polycarbonate chemotaxis membranes (5 μm pore size) that had been soaked in 0.1% gelatin overnight and dried. The chamber was then reinverted and basic fibroblast growth factor (bFGF) and test substances were added to the wells of the upper chamber (to a total volume of 50 μL); the apparatus was then incubated for 4 hours at 37° C. Membranes were recovered, fixed and stained (DiffQuick, Fisher Scientific, Pittsburgh, Pa.) and the number of cells that had migrated to the upper chamber per 10 high power fields were counted. Background migration to DMEM+0.1% BSA was subtracted and the data reported as the number of cells migrated per 10 high power fields (400×) or when results from multiple experiments were combined, as the percent inhibition of migration compared to a positive control.

Compound | inhibition at 0.2 µM [%] | % inhibition at 200 nM test compound [%]
COC(=O)c1ccc(NC(=O)[C@@H](CCCCN)NC(=O)OC(C)(C)C)cc1-c1ccccc1O [Example 10, (R)-methyl 4-[[6-amino-2-[[(1,1-dimethylethoxy)carbonyl]amino]-1-oxohexyl]amino]-2-(2-hydroxyphenyl)benzoate] | 80 | –
COC(=O)c1ccc(NC(=O)[C@H](CCCCNC(=O)OCc2ccccc2)NC(C)=O)cc1-c1cccc(OCc2ccccc2)c1 [Example 12] | – | 29
CC(=O)N[C@@H](CCCCN)C(=O)Nc1ccc(C(=O)O)c(-c2cccc(O)c2)c1 [Example 15, (S)-4-[[2-(acetylamino)-6-amino-1-oxohexyl)amino]-2-(3-hydroxphenyl)benzoic acid] | – | 64
CC(=O)NC(CCCCN)C(=O)Nc1ccc(C(=O)N[C@@H](CC(N)=O)C(=O)O)c(-c2ccccc2)c1 (stereo partly shown) [Example 17] | – | >95
NC(CCCCNC(=O)OCc1ccccc1)C(=O)Nc1ccc(CC(=O)N[C@@H](CC(=O)O)C(=O)O)cc1 (stereo partly drawn) [Example 20, (S)-N-[[4-[[2-amino-6-[[(phenylmethoxy)carbonyl]amino]-1-oxohexyl]amino]phenyl]acetyl]-L-aspartic Acid] | 34 | –
CC(C)(C)OC(=O)N[C@@H](CCCCN)C(=O)Nc1ccc(C(=O)O)c(-c2cccc(O)c2)c1 [Example 31, 5-(((2S)-6-amino-1-(tert-butoxycarbonyl)aminohexanoyl)amino)-3′-hydroxy(1,1′-biphenyl)-2-carboxylic Acid] | – | >95
(S)-N-[4-[[2-(acetylamino)-6-amino-1-oxohexyl]amino]benzoyl]-L-α-asparagine [Example 18] | – | 90
